Here are results for 93 compounds from a melting point compilation (Tetko et al.; mined from patent text by program, amines drawn as free bases though some values may be those of a salt).

The structures appear in SMILES notation.

Consider `C=CCCOC[C@H]1CC[C@H](c2ccc(C#N)cc2)CC1`, for which the melting point – broadly, the temperature of the solid-liquid transition – is 12.7 °C. For the compound `CCCCNS(=O)(=O)CC(O)C(O)C(CC1CCCCC1)NC(=O)c1ccc(O)c(O)c1` (stereo not drawn), the melting point lay in the range of 162 to 165 °C. The figure for `Cc1nc(C)c(CCl)cc1CCl` is 108 to 109 °C. Consider `CCNc1cc(-c2c[nH]cn2)ccn1`, for which the melting point lay within 135 to 137 °C. For `Cn1c(-c2ccccc2)c(C(=O)CCn2ccnc2)c2ccccc21` the value was 159 to 162 °C; for `N#Cc1ccc(-c2cnco2)cc1`, 140 °C.

In turn, `NS(=O)(=S)CCCc1ccccc1` (stereo not drawn) returned a melting point of 98 to 101 °C. For `CN(C)C=CC(=O)c1ccsc1` the value was 89 to 90 °C. The compound `C=C(c1ccccc1)c1cccc(NS(=O)(=O)C(F)(F)F)c1` registered a melting point of 55 to 59 °C. The figure for `O=C1C(=Cc2ccccc2O)c2ccccc2N1C1=NCCS1` is 196 to 197 °C. For `Cc1cccc(-c2nccc(NN)n2)c1` the value was 102 to 103 °C.

In turn, `CCC(=O)N(CC)c1cccc(-c2ccc3nncn3n2)c1` registered a melting point of 127 to 130 °C.

Compound `CCCCCCCCC(SCCCCCC)C(=O)Nc1c(SC)ccc2ncccc12` (stereo not drawn) gave a melting point of 91 to 92 °C. For `Nc1ccc(S(=O)(=O)Nc2cc(Br)nc(Br)c2)cc1` the value was 220 to 222 °C. The figure for `CN(C)c1ccc(CNC(=O)[C@@H](Cc2ccccc2)NC(=O)CCC(=O)O)cc1` is 194 to 196 °C; for `CCCCN(CCCC)C(=O)Cc1ccccc1Nc1c(Cl)cccc1Cl` it is 66 to 68 °C; for `CCOC(=O)c1cc2c(C)ccc(O)c2[nH]1` it is 211 to 212 °C. For `CC(=O)SCCCCC(=O)c1cccnc1` the value was 43 °C; for `O=C(CN1CCOCC1)Nc1ccc(-n2nc(C3CC3)cc2C2CC2)cc1`, 178 to 184 °C; for `N#Cc1ccccc1-c1ccc(CN2C(=O)c3ccccc3C2=O)cc1`, 150 to 153 °C. `COC(=O)c1ccc(Nc2cccc3ccccc23)cc1` came in with a melting point of 130 to 132 °C. For `CCCCCCOP(=O)(OCCCCCC)c1ccc(NC(=O)c2cccc([N+](=O)[O-])c2)cc1` the value was 98 °C; for `COc1ccc(S(=O)(=O)N(CCO)c2ccccc2/C=C/c2ccncc2)cc1`, 198 to 200 °C. The compound `Cn1c2ccccc2c2cc(CN3CCOCC3)sc21` registered a melting point of 102 to 106 °C.

As for `CC1SC(=O)NN=C1c1ccc2c(c1)C(=Cc1ccccc1[N+](=O)[O-])C(=O)N2` (stereo not drawn), the melting point turned out to be 258 °C. For `CCOC(=O)c1cc(OCN2C(=O)c3c(C(C)C)cc(OC)cc3S2(=O)=O)n(-c2ccccc2)n1` the value was 170 to 171 °C. In turn, `CC(C)CO/N=C(\C(=O)O)c1csc(NC(c2ccccc2)(c2ccccc2)c2ccccc2)n1` yielded a melting point of 168 to 169 °C.

For `CCOC(=O)C(=O)Nc1ccc2nonc2c1NC(=O)C(=O)OCC`, the melting point turned out to be 175 °C. With `O=C(NOCCNc1ccccc1)c1ccc(F)c(F)c1Nc1ccc(I)cc1Cl`, the melting point is 158 °C.

On to `CS(=O)(=O)Nc1ccc(CCCC(=O)OCc2ccccc2)cc1`, for which the melting point was 88 to 89 °C. As for `Cc1cc(C(=CNc2ccc(O)cc2)C(=O)c2ccccc2)on1`, the melting point fell in the range of 73 to 74 °C. For `COc1cc(OC)cc(C2CC=CCC2[N+](=O)[O-])c1` (stereo not drawn) the value was 73 to 75 °C. The figure for `CC(=O)Nc1ccc2c(c1)CC(CC(=O)O)C2=O` (single isomer, unassigned; (-)) is 190 to 192 °C; for `O=C(O)c1ccc(Nc2cccc3ccccc23)cc1` it is 227 to 229 °C; for `COc1cc(C(=O)O)cc2ccc3ccccc3c(=O)c12` it is 252 to 253 °C.

For `CCOC1CCC(=O)N1S(=O)(=O)c1ccc(O)cc1` (stereo not drawn), the melting point was in the range of 162 to 163 °C. For `CC12CCC3c4ccc(C(=O)O)cc4CCC3C1CCC2C(=O)c1ccco1` (stereo not drawn) the value was 180 to 182 °C. For `CCC(Br)C(=O)c1ccc(OC)c(OCC(F)(F)F)c1` (stereo not drawn) the value was 120 to 121 °C; for `CCc1nc(-c2ccc(OCCCN3CCN(C)CC3)cc2)no1`, 55 to 56 °C; for `CN(C)CCC1CCCCN1CC(=O)N1c2ccccc2NC(=O)c2ccccc21` (stereo not drawn), 155 to 157 °C. For `COC(=O)c1cc(-c2ccc(C)c(F)c2)n[nH]c1=O` the value was 206 to 207 °C; for `CN(C)c1ccccc1SCc1noc(-c2ccccc2)n1`, 100 °C; for `CN1CCc2c(c3ccccc3n2CCc2nc(-c3ccccc3)cs2)C1`, 128 to 130 °C. In turn, `Cc1cccc(C(=O)Nc2c[nH]nc2C(=O)NCCO)n1` displayed a melting point of 252 to 253 °C. `O=C(C#Cc1ccc(C(F)(F)F)cc1Cl)Nc1ccc(OCCn2cnnc2)cc1`: the melting point is 223 to 227 °C. In turn, `COC(=O)NCCCCC1CCSS1` (stereo not drawn) came in with a melting point of 31 to 32 °C.

`CC(C)c1ccc(OC(Cc2ccc(OCCNC(=O)c3ccc(-c4ccccc4)cc3)cc2)C(=O)O)cc1` (stereo not drawn) displayed a melting point of 172 to 173 °C. In turn, `COc1cc2c(cc1OC)-c1cc(=Nc3c(C)cc(C)cc3C)n(C(C)C)c(=O)n1CC2` had a melting point of 178 to 179 °C. For `CCOC(=O)CCCCCOc1ccc(C(=O)Nc2ccccc2Oc2ccccc2-c2nnn[nH]2)cc1` the value was 140 to 141 °C. Compound `COc1cccc([C@]23CCN(C)C(=O)[C@@H]2CCC(=O)C3)c1` (relative stereo) registered a melting point of 156 to 158 °C. `C=CCON=C(CCC)C1=C(O)CC(c2cc(C)cs2)CC1=O` (stereo not drawn): the melting point lay within 72 to 74 °C.

For the compound `NC(=NCC(F)(F)F)Nc1ccnc(SCCCC(=O)NCCO)n1`, the melting point was in the range of 148 to 150 °C. For `COC(=O)CCON1C(C)(C)CC(OCc2ccc(COC3CC(C)(C)N(OCCC(=O)OC)C(C)(C)C3)cc2)CC1(C)C` the value was 84 to 85 °C; for `O=C(C(=C1NCCCS1)[N+](=O)[O-])c1ccccc1`, 137 to 140 °C. For `N#CC1Sc2ccccc2N1C(=O)c1ccc(Cl)cc1` (stereo not drawn) the value was 115 to 117 °C. For `Nc1c(F)c(N2CCC(n3cncn3)C2)c(F)c2c1c(=O)c(C(=O)O)cn2C1CC1` (stereo not drawn) the value was 240 °C. `O=C(O)/C=C/n1cnc2ccc(O)cc2c1=O` came in with a melting point of 294 to 296 °C. The figure for `CCCCCCCCCCCC1Nc2ccccc2-c2c([N+](=O)[O-])cnn21` (stereo not drawn) is 92 to 93 °C; for `C[C@H]1CCCC(C)(C)[C@@H]1[C@@H](O)c1ccc(Cl)c(F)c1` it is 61.1 to 63.6 °C; for `CN(C=O)C1(C(=O)O)CC1` it is 210 °C. The compound `Cc1cc(-c2ccc(F)cc2)co1` showed a melting point of 95 to 97 °C. The figure for `c1cncc(-c2nncs2)c1` is 78 to 79 °C; for `Cc1cccc(-c2[nH]c(C(C)(C)C)nc2-c2cccc(-c3ccc(C(=O)NC4CCOCC4)cc3)c2)n1` it is 146 to 149 °C; for `FCC=Cc1ncn(C(c2ccccc2)(c2ccccc2)c2ccccc2)n1` it is 149 °C.

Compound `O=C1c2ccccc2C(=O)N1CC(=O)N1c2ccccc2N(Cc2ccccc2F)C(=O)[C@H]2CCC[C@H]21` (relative stereo) showed a melting point of 250 to 253 °C. In turn, `COc1ccc(C2=NN(C3CCN(S(=O)(=O)N(C)C)CC3)C(=O)C(C)(C)C2)cc1OC` registered a melting point of 172 to 174 °C.

The compound `NS(=O)(=O)c1cc2cc(N(Cc3ccccc3)Cc3ccccc3)ccc2s1` registered a melting point of 122 to 124 °C. The figure for `COC(C)=NS(=O)(=O)c1nc(-c2ccc(O)cc2)ns1` is 190 to 192 °C; for `C[C@@H]1OC(=O)N[C@H]1Cc1ccccc1` it is 116 °C; for `CCOC(=O)c1ccc(C2=CCCCC2C(C)(C)C)cc1` (stereo not drawn) it is 50 °C. The figure for `COC(=O)c1c2cc(I)ccc2nc2ccc(I)cc12` is 201 to 203 °C; for `CC(C)(C)c1nc2cc(N3CCCCC3)c([N+](=O)[O-])cc2s1` it is 147 to 148 °C; for `CN(C)C(=O)c1cc2ccccc2c(-c2ccccc2)n1` it is 114 to 116 °C. `O=C(OCc1ccccc1)N1CCC(C(=O)O)(c2ccccc2)CC1` gave a melting point of 142 to 144 °C. The figure for `Cc1ccc(C(=O)NCC(C)O)cc1C` (stereo not drawn) is 77 to 78 °C; for `CC(=O)n1cc(Cl)c(-c2cccc(Cl)c2)c1` it is 88 to 90 °C. The figure for `O=C1Nc2ccccc2N(C(=O)N2CCCC(CCCN3CCOCC3)C2)c2ncccc21` (stereo not drawn) is 161 to 163 °C; for `C=CC(=O)CCC1=CC(=O)NC1=O` it is 77 to 78 °C; for `Cc1nn(C(=O)Oc2ccccc2)c(=O)n1N` it is 175 °C. On to `N#CCOC(=O)C=Cc1cc2ccccc2o1`, for which the melting point was 119 to 121 °C.

Regarding `CCOCc1cc2c([N+](=O)[O-])cccc2cn1`, the melting point is 54 °C. Compound `O=C1NC(=O)c2cc(Nc3ccccc3)c(Nc3ccccc3)cc21` registered a melting point of 205 to 207 °C.

`COc1ccccc1COc1ccc(-c2cc(O)c(SCCc3ccccc3)c(=O)o2)cc1` had a melting point of 138 to 139 °C. The figure for `CSC1=Nc2ccccc2C(c2ccccc2)=NC1` is 167 to 168 °C; for `Cc1ccc(NC(=O)N=C2CCCN2C)cc1` it is 136 to 137 °C; for `Nc1cccc(C(=O)OC2CCN(Cc3ccccc3)CC2)c1` it is 70 to 71 °C. The figure for `FC(F)(F)c1cnc(CNC(=S)c2ccccc2Cl)c(Cl)c1` is 102 to 103 °C; for `CCOCc1nc2c(N)nc3cc(Br)cnc3c2n1CC1(O)CCCC1` it is 166 to 168 °C; for `NS(=O)(=O)c1cc2c(s1)S(=O)(=O)N(CCN1CCOCC1)N=C2` it is 164 to 166 °C.

`CC#CCOc1cc2c(cc1CCC)OCO2` displayed a melting point of 39 to 40 °C. Compound `CCC(Cc1ccc(OCCN2CCOCC2)cc1)(C(=O)NO)S(=O)(=O)c1ccc(OC)cc1` (stereo not drawn) displayed a melting point of 51 °C. The figure for `Cc1nnc2n1-c1sc(C#CCN3C(=O)C(=O)c4ccccc43)cc1C(c1ccccc1Cl)=NC2` is 185 to 190 °C; for `COc1ccc(CSc2nc(NC(CO)CO)c3ncc(=O)[nH]c3n2)cc1Cl` it is 209 to 211 °C.
